The test system of data set [1] is normal murine hematopoietic stem cell line "BL/6 BM". The data set is described as follows: MTS viability assay, normal murine hematopoietic stem cell line. In kind it is cell-based. The note with it: serial two-fold dilutions starting from 10 μM, 24 h, FIG. 1. How it is done: (§1) Leukemic stem cell lines and normal hematopoetic stem cell lines are separately maintained in cultures as described above. For viability assays, the cell lines are passed 24-36 hours prior to use in the assay, in order to test for sensitivity to specific drugs with cells in log-phase growth. Cells are plated in 96-well flat bottom plates (Greiner, Switzerland), at a concentration of 10^4 cells for the leukemic stem cell lines and normal hematopoietic stem cell lines, or 10^5 for the primary human fetal cord blood cells. Cells are plated in a final volume of 200 μl containing RPMI-1640 growth medium, supplemented as described above. Cells are either plated in medium alone, or medium containing a drug of interest. All drugs are tested in 11 different concentrations in order to derive sensitivity curves. The individual conditions were set up in triplicate wells, and at least three independent assays are performed to validate a specific observation.
(§2) The cells are cultured with the specific drug concentration for 24 hours at 37° C. in a 5% CO2 atmosphere. After culturing the cells under the experimental conditions for 23 hours, the wells are supplemented with 10 μl of the CellTiter 96 Aqueous Non-radioactive Cell Proliferation MTS reagent (Promega, Madison Wis.), and incubated in a 37° C. incubator (5% CO2) for 60 minutes. All plates are analyzed using a plate reader (Molecular Devices) using a filter set for O.D. 405. All values are used to derive standard errors, and compared among the different independent assays.
(§3) These compounds are screened for the ability to inhibit leukemic stem cell viability but not affect normal hematopoietic stem cells by incubating the compounds with cells using serial two-fold dilutions starting from 10 μM stocks.
For orientation: Tetrazolium dyes change colour on reduction, which living cells bring about.

Data set [2] relates to ABM 42 C31 leukemic stem cells. The data set is described as follows: Therapeutic trial: survival of mice transplanted with leukemic stem cells (pre-clinical model of AML). In kind it is in vivo. The note with it: 7 daily injections of 250 ul of 10 uM solution, intravenously, from clinical signs (about 15 d post-transplant); FIG. 5. From the text: Groups of 3-5 mice are utilized for each of the experimental protocols. Transplantation of tumors is done by injecting 10^3 cells intravenously into cohorts of sub-lethally irradiated (450R)C57/BL6/Rag −/− mice ranging in age from 4-6 weeks. The mice are monitored daily for clinical signs of disease. These clinical signs included externally evident splenomegaly, a hunched posture and reduce mobility, labored breathing, dehydration, scruffy fur and an ascending paralysis in a minority of cases. […] The mice then receive daily injections of the indicated agents for 7 days. Mice are held indefinitely to ascertain rates of survival.
Into cohorts of sublethally irradiated mice are transplanted 10^3 ABM 42 C31 leukemic stem cells. Treatment of the mice when they develop clinical signs of disease (hunched posture, rapid breathing, scruffled fur at approximately 15d post-transplant). Mice receive 7 daily injections of 250 ul XPBS solutions containing 10 uM concentrations of 4-Amino-7-[(2R,3S,4S,5R)-3,4-dihydroxy-5-(hydroxymethyl)oxolan-2-yl]-6-hydrazinylpyrrolo[5,4-d]pyrimidine-5-carboxamide, 2-[(2-chloro-4-nitrophenanthridin-6-yl)amino]ethanol, and 5-(anthracen-1-ylmethylidene)-2-sulfanylidene-1,3diazinane-4,6-dione. After the 7th day the mice are monitored for survival. FIG. 5 illustrates that administration of the compounds delay mortality in a pre-clinical model of AML disease.

For data set [3] the following is noted: mouse, in vivo.
Data set [4] is classed as in vivo. The note with it: immune deficient mice reconstituted with murine hematopoetic stem cell lines; 7 daily injections of 1 mM concentrations. How it is done:
Immune deficient mice that are reconstituted with the murine hematopoetic stem cell lines are injected with 10,000× the effective in vitro concentration of a drug. Briefly, mice are given 7 daily injections of 1 mM concentrations of one of 4-Amino-7-[(2R,3S,4S,5R)-3,4-dihydroxy-5-(hydroxymethyl)oxolan-2-yl]-6-hydrazinylpyrrolo[5,4-d]pyrimidine-5-carboxamide, 2-[(2-chloro-4-nitrophenanthridin-6-yl)amino]ethanol, and 5-(anthracen-1-ylmethylidene)-2-sulfanylidene-1,3diazinane-4,6-dione. After the 7th day the mice are monitored for overt side-effects and survival.

The test system of data set [5] is leukemic stem cell clone ABM42 C31. The data set is described as follows: MTS viability assay, murine leukemic stem cell line. In kind it is cell-based. The note with it: serial two-fold dilutions starting from 10 μM, 24 h, FIG. 1. How it is done:
as §1, §2, §3

For data set [6], the system named is leukemic stem cells. The data set is described as follows: Flow cytometric analysis of apoptosis induction (7AAD). The format is cell-based. The note with it: 10 μM; 24 h; versus normal murine hematopoietic stem cell lines; FIG. 2. As for the experimental part:
For analysis of apoptosis in leukemic stem cells or in normal hematopoietic stem cell lines, cells are cultured (in triplicate) with the specific drug concentration for 24 hours at 37° C. in a 5% CO2 atmosphere. Cell suspensions obtained from cultured cells are washed twice in FACS buffer, incubated for 20 minutes with 4 μM 7-aminoactinomycin-D (7AAD, Calbiochem), and washed with FACS buffer. Stained cells are resuspended in PBS and analyzed immediately on a flow cytometer.
4-Amino-7-[(2R,3S,4S,5R)-3,4-dihydroxy-5-(hydroxymethyl)oxolan-2-yl]-6-hydrazinylpyrrolo[5,4-d]pyrimidine-5-carboxamide, 2-[(2-chloro-4-nitrophenanthridin-6-yl)amino]ethanol, and 5-(anthracen-1-ylmethylidene)-2-sulfanylidene-1,3diazinane-4,6-dione preferentially kill murine leukemic stem cell viability vs. normal murine hematopoietic stem cell line. These compounds are screened to determine whether the effect of the compounds on reduced viability was due to inhibiting proliferation, or direct killing through apoptosis. The cells are analyzed by flow cytometric analysis for the exclusion of 7-aminoactinomycin-D (7AAD). At a concentration of 10 μM, cells are incubated in a 5% CO2 atmosphere for 24 h. After two washes in 1×PBS the cells are incubated with 4 μM 7-aminoactinomycin-D (7AAD) for 20 min.

Data set [7] deals with leukemic cell line (U937). The data set is described as follows: MTS viability assay, human leukemic cell line. In kind it is cell-based. The note with it: serial two-fold dilutions beginning with 10 μM, 24 h, FIG. 3. As for the experimental part:
as §1, §2
These compounds are incubated with cells using serial two-fold dilutions beginning with 10 μM.

The nature of data set [8]: Bone marrow toxicity in mice (FIG. 17). The conditions noted are these: compared to mice treated with methotrexate (MTX).
For data set [9], the system named is primary unmanipulated fetal cord blood cells. The data set is described as follows: MTS viability assay, primary fetal cord blood cells. The format is cell-based, human. The conditions noted are these: at the drug concentrations tested (two-fold dilutions from 10 μM), 24 h, FIG. 4. How it is done: as §1
The cells are cultured with the specific drug concentration for 24 hours at 37° C. in a 5% CO2 atmosphere. […] All plates are analyzed using a plate reader (Molecular Devices) using a filter set for O.D. 405. […]

For data set [10], the system named is normal hematopoietic stem cells. The data set is described as follows: Effect on normal hematopoietic stem cells (FIG. 6). In kind it is cell-based.
Data set [11] concerns leukemic stem cells. The data set is described as follows: Killing of leukemic stem cells (FIG. 6). In kind it is cell-based.

Like-named read-outs stand apart in the source and are kept apart here.

Turning to `O=[N+]([O-])c1cc(Cl)cc2c1nc(NCCO)c1ccccc12` [2-[(2-chloro-4-nitrophenanthridin-6-yl)amino]ethanol], in [1], the “viability of normal murine hematopoietic stem cell line” value is recorded as “but not the normal murine hematopoietic stem cell line”. For the same compound, the “survival of mice transplanted with leukemic stem cells” value (“survival of mice transplanted” for short) in [2] is “increase survival”. Also, the bone marrow toxicity entry in data set [3] is recorded as “less bone marrow toxicity”. For the same compound, in data set [4], the mortality result was “none of the mice died”. In addition, the “viability of leukemic stem cells” value in [5] is given as “preferentially inhibited viability”. Further, the “apoptosis induction (7AAD positive/GFP negative)” value in the data set with leukemic stem cells [6] is on record as “induce apoptosis preferentially in leukemic stem cells”. Also, the “viability of human leukemic cell lines” value in data set [7] was “preferentially inhibited viability of the leukemic cell lines”.
Take `NNc1c(C(N)=O)c2c(N)ncnc2n1[C@@H]1O[C@H](CO)[C@@H](O)[C@@H]1O` [4-amino-7-[(2R,3S,4S,5R)-3,4-dihydroxy-5-(hydroxymethyl)oxolan-2-yl]-6-hydrazinylpyrrolo[5,4-d]pyrimidine-5-carboxamide]: in data set [1], the “viability of normal murine hematopoietic stem cell line” value is “but not the normal murine hematopoietic stem cell line”. The “survival of mice transplanted” value in [2] is recorded as “increase survival”. Also, the mortality entry in data set [4] was “none of the mice died”. Further, the “viability of leukemic stem cells” value in data set [5] is on record as “preferentially inhibited viability”. Moreover, in the data set with leukemic stem cells [6], the “apoptosis induction (7AAD positive/GFP negative)” value was “induce apoptosis preferentially in leukemic stem cells”. Also, in data set [8], the bone marrow toxicity result was “less bone marrow toxicity”. For the same compound, the “viability of human leukemic cell lines” value in [7] is listed as “preferentially inhibited viability of the leukemic cell lines”.
For `O=C1NC(=S)NC(=O)C1=Cc1cccc2cc3ccccc3cc12` [5-(anthracen-1-ylmethylidene)-2-sulfanylidene-1,3diazinane-4,6-dione], in data set [1], the “viability of normal murine hematopoietic stem cell line” value is reported as “but not the normal murine hematopoietic stem cell line”. Also, the “survival of mice transplanted” value in data set [2] is “increase survival”. Moreover, the “viability of primary unmanipulated fetal cord blood cultures” value in [9] is “no decrease in viability”. Besides, the mortality entry in data set [4] is listed as “none of the mice died”. In addition, the “viability of leukemic stem cells” value in data set [5] is reported as “preferentially inhibited viability”. The “apoptosis induction (7AAD positive/GFP negative)” value in the data set on leukemic stem cells [6] is on record as “induce apoptosis preferentially in leukemic stem cells”. In data set [8], the bone marrow toxicity entry is on record as “less bone marrow toxicity”. Also, the “viability of human leukemic cell lines” value in [7] is “preferentially inhibited viability of the leukemic cell lines”.
With `CN(Cc1cnc2nc(N)nc(N)c2n1)c1ccc(C(=O)N[C@@H](CCC(=O)O)C(=O)O)cc1` [methotrexate], in data set [10], the “effect on normal hematopoietic stem cells” value was “killed”. Also, the “effect on leukemic stem cells” value in the data set on leukemic stem cells [11] is recorded as “killed”.

(Values after patent US20110218210A1, “COMPOUNDS FOR TREATING ABNORMAL CELLULAR PROLIFERATION” (priority 2007, published 2011).)
